Test results as given in US20070021329A1, “Treatment of hypersensitivity conditions” (THE University of QUEENSLAND, priority 2002, published 2007).

Experiments:
feline asthma = assay: Treatment of asthma in a tiger cub; assay type: in vivo, Bengal Tiger; conditions: for response of respiratory clinical signs to bronchodilators: terbutaline 0.3 mg/kg orally, Ventolin puffer 100 μg by inhalation
Procedure: Respiratory problems were first noticed in Kaasha, a female Bengal Tiger cub at the Dreamworld park, Australia, at the age of 10 weeks and around 10 kg body weight.
Approximately three weeks after initial clinical signs, the treatment included Clavulox (7 mg/kg administered subcutaneously), doxycycline (5 mg/kg administeredorally), and enrofloxacin (5 mg/kg administered subcutaneously) and terbutaline (0.3 mg/kg administered orally), nebulisation (saline) and percussion, use of Ventolin 100 μg by puffer inhalation and terbutaline (0.3 mg/kg administered orally) as necessary to control dyspnoea. Prednisolone was given as a single daily dose of 2 mg/kg, and Seretide (Salmeterol 50 μg plus fluticasone 250 μg) was given using a mask and spacer. […] This combination of treatment was maintained over the next month.
Consequently an experimental technique involving direct injection of Prednisolone sodium succinate, 1200 mg in a total volume of 30 ml (40 mg/ml aqueous solution), was instilled into the trachea under general anaesthesia.
Three weeks after the intra-airway steroid procedure, another experimental therapy was applied. […] (1) were administered at a dose rate of 0.3 mg/kg as single daily subcutaneous injections for six days, followed by twice-weekly injections for 8 weeks. At this time the dose of oral corticosteriod, Prednisolone approx 1 mg/kg reducing, had been reduced to 20 mg per day because of concern regarding side effects of prolonged high dose use.

[1] = dog, in vivo, sc
Source text: (§2) Blood samples were collected after 4 weeks of treatment. […] Biochemistry and haematology was repeated on the high-dose dog at this time.
(§3) The second dog was bled for haematology and biochemistry after a total of seven weeks treatment.

[2] = Safety observations in dogs treated with PMX53 (haematology, biochemistry, autopsy, injection site); conditions: both dogs; duration of the experiment
Source text: as §2, §3

dermal Arthus reaction [3] = assay: Reverse passive dermal Arthus reaction in the rat: vascular leakage (Evans blue); assay type: in vivo; conditions: intravenous, oral and topical pretreatment, FIG. 1
Procedure: (1) by oral gavage (10 mg kg^−1 dissolved in 10% ethanol/90% saline solution to a final volume of 200 μl) or an appropriate oral vehicle control 30 min prior to deposition of antibody. Female Wistar rats (150-250 g) were anaesthetised with ketamine (80 mg kg^−1 i.p.) and xylazine (12 mg kg^−1 i.p.).
(§1) The lateral surfaces of the rat were carefully shaved and 5 distinct sites on each lateral surface clearly delineated. A reverse passive Arthus reaction was induced in each dermal site by injecting Evans blue (15 mg kg^−1 i.v.), chicken ovalbumin (20 mg kg^−1 i.v.) into the femoral vein 10 min prior to the injection of antibody. Rabbit anti-chicken ovalbumin (saline only, 100, 200, 300 or 400 μg antibody in a final injection volume of 30 μL) was injected in duplicate at two separate dermal sites on each lateral surface of the rat, giving a total of 10 injection sites per rat. Rats were placed on a heating pad, and anaesthetic was maintained over a 4 h-treatment period with periodic collection of blood samples. […] Additionally, a second set of skin samples were placed in 1 mL of formamide overnight, and the absorbance of Evans blue extraction measured at 650 nm, as an indicator of serum leakage into the dermis. […] Data are shown as absorbance at 650nm as a percentage of the plasma absorbance, as mean values ±SEM (n=3-6). *indicates a P value ≦0.05 when compared to Arthus control values. […]

dermal Arthus reaction [4] = assay: Reverse passive dermal Arthus reaction in the rat: pathology assessment (PMN infiltration score); assay type: in vivo; conditions: intravenous, oral and topical pretreatment, FIG. 3
Procedure: as §1
Rat skin samples were fixed in 10% buffered formalin for at least 10 days, and stained with haematoxylin and eosin using standard histological techniques. Dermal samples were analysed in a blind fashion for evidence of pathology, and the degree of rat PMN infiltration was scored on a scale of 0-4. […]

[5] = test system: demodectic dermatitis (Demodex canis infestation); assay: Treatment of flea allergy dermatitis and demodectic dermatitis in dogs; assay type: in vivo, dog
Source text: Demodex, also known as demodectic mange or red mange, is an infestation of the skin caused by the mite Demodex canis which causes dermatitis, skin thickening and hair loss, and is very common in dogs. This condition is thought to be due partially to impaired immune responses in the host. It is often associated with flea infestation, which itself can cause an allergic dermatitis. The skin irritation in infected animals is sometimes very extensive, and results in loss of hairs and severe skin rashes. […] (b) A mastiff pup (approximately 6 months old) was diagnosed as having demodex infestation (folliculitis) of the head, involving both eyelids. […] The eyes were red and discharging, and the dog squinted because of the ocular pain. […] This was applied to the eyelid lesion so that the lesion was wet, and was also instilled into the eyes. […] This was considered to be a very significant clinical response.

allergic dermatitis = assay: Treatment of allergic/atopic dermatitis in dogs; assay type: in vivo, dog
Source text: Because of the intermittent nature of the lameness the owner, a veterinarian, found it difficult to assess any improvement.
A very old dog (estimated age 13-16 years) admitted to a pound was diagnosed as having severe atopic dermatitis affecting 100% of the skin and the inside of the ear pinnae (otitis external, and keratoconjunctivitis sicca (“dry eye”). The dog had broken skin over the dorsum of the tail, and both eyes were encrusted with yellow exudate.
The sores on the tail resolved within 3 days.

equine receptor = assay: Binding to equine C5a receptor; set-up: species or system horse
feline C5a receptor = assay: Binding to feline C5a receptor; set-up: species or system cat
circulating TNFα = assay: Reverse passive dermal Arthus reaction in the rat: serum TNFα ELISA; assay type: in vivo; conditions: intravenous, oral and topical pretreatment, FIG. 2
Procedure: as §1, with “samples. Blood was allowed to spontaneously clot on ice, and serum samples were collected and stored at −20° C.” for “samples.”
Serum TNFα concentrations were measured using an enzyme-linked immunosorbent assay (ELISA) kit (Strachan et al., 2000). […]

[6] = mastiff pup, topical 10 mg/ml daily, after 5 days
[7] = old dog, topical 5 mg/ml once a day

Molecule: CC(C)(C)NCC(O)c1cc(O)cc(O)c1 (centres unmarked) [terbutaline, reference compound]
- response of respiratory clinical signs to bronchodilators (feline asthma): responded rapidly

Molecule: CC(C)(C)NCC(O)c1ccc(O)c(CO)c1 (centres unmarked) [Ventolin, albuterol, reference compound]
- response of respiratory clinical signs to bronchodilators (feline asthma): responded rapidly

Molecule: AcF-[OPdChaWR] [PMX53]
- irritation at the site of injection [1]: no evidence of irritation
- discomfort on injection ([1]; 0.3 mg/kg): No discomfort was noted
- haematology and biochemistry abnormalities ([1]; 0.3 mg/kg): No abnormalities were detected
- signs of drug toxicity [2]: no signs of drug toxicity
- vascular leakage associated with a dermal Arthus reaction (dermal Arthus reaction [3]): inhibition of the vascular leakage
- breathing and recovery time after episodes of dyspnoea (feline asthma; 0.3 mg/kg single daily subcutaneous injections for six days): moderate to marked improvement
- general breathing pattern and recovery time (feline asthma; 0.3 mg/kg subcutaneous twice-weekly injections): not as good during twice weekly treatments as it had been following daily injections, although recovery time was comparable
- playfulness, general activity level, appetite and general demeanour (feline asthma; together with reduction in oral cortisone dosage): marked improvement
- pathology index associated with a dermal Arthus reaction (dermal Arthus reaction [4]): reduction of the pathology index
- eyelid inflammation / trichiasis ([5]; mastiff pup, eye drops 10 mg/ml once daily, over 5 days): inflammation resolved to the point that the trichiasis was relieved
- inflammation in the skin (head lesions) [5, 6]: inflammation in the skin was reduced
- mites in scrapings taken from the lesion [5, 6]: mites were still present
- inflammatory response in the skin ([5]; two dogs with demodectic dermatitis, 0.3 mg/kg s.c. for 13 days): significant reduction in the inflammatory response in the skin
- allergic dermatitis (allergic dermatitis; kelpie dog, 1 mg/kg/day PO): marked improvement in the dog's allergic dermatitis, which had apparently resolved completely
- time to resolution of sores on the tail (allergic dermatitis; old dog, severe atopic dermatitis, topical 5 mg/ml in 50% propylene glycol:50% water once a day): ≤ 3 days
- gait (allergic dermatitis; old dog, after treatment, initially very stilted gait): able to walk and trot freely
- eyes (keratoconjunctivitis sicca) (allergic dermatitis; old dog, eye-drop formulation 5 mg/ml in 30% polyethylene glycol:70% normal saline): improved to the point of being essentially normal in appearance
- itching (allergic dermatitis; [7]): no signs of itching
- thickening of the skin over the stifle and ischial tuberosity (allergic dermatitis; [7]): resolved noticeably
- severe allergic dermatitis (presumed flea allergy) (allergic dermatitis; second dog, 0.3 mg/kg s.c. once daily, FIG. 4): completely resolved
- binding to the equine receptor (equine receptor): binds less effectively
- binding to the feline C5a receptor (feline C5a receptor): bind well
- rise in circulating TNFα associated with a dermal Arthus reaction (circulating TNFα): inhibition of the rise in circulating TNFα

Molecule: Prednisolone sodium succinate [reference compound]
- respiratory effort (feline asthma; 1200 mg in 30 ml instilled into the trachea, within 24 hours): rapid and marked improvement in respiratory effort
